Results as given in US10450421B2, “Synthesis of multiarm poly[(R)-3-hydroxybutyrate] and its derivatives” (AGENCY FOR SCIENCE, TECHNOLOGY AND RESEARCH, priority 2015, dated 2019).
Ends that are not written are not given here.

Legend:
S. aureus = experiment: Antimicrobial test, MIC against S. aureus; type: cell-based; settings: Gram-positive bacteria S. aureus (n = 2)
Method: (§1) The solutions based on the Q-PHB-PDMAEMA were tested for efficacy in killing clinically significant pathogens: the […] and Gram-negative bacteria (E. coli).

E. coli = experiment: Antimicrobial test, MIC against E. coli; type: cell-based; settings: Gram-negative bacteria E. coli (n = 2)
Method: as §1

For GIGKFLHSAGKFGKAFVGEIMKS [Magainin I], the MIC (S. aureus) was 130 µg/mL and the MIC (E. coli) was 130 µg/mL.
